This is an account of results in ChEMBL document CHEMBL1212880, “Discovery of (2,4-dihydroxy-5-isopropylphenyl)-[5-(4-methylpiperazin-1-ylmethyl)-1,3-dihydroisoindol-2-yl]methanone (AT13387), a novel inhibitor of the molecular chaperone Hsp90 by fragment based drug design” (J Med Chem, 2010).

One may read the pKa as the pH at which an ionisable group is half protonated. Low values mean a stronger acid or weaker base, high ones a weaker acid or stronger base. Broadly, the inhibition is the drop in the measured response relative to a control, in per cent. Read a high inhibition as a strong effect. In general, solubility refers to how much of the substance goes into solution per volume. Read a high solubility as a readily soluble substance. By logD is commonly meant the decadic logarithm of the distribution of all forms, ionised or not, between an organic phase and buffer at a given pH.

Converted amounts (≈) assume the structure as drawn. The source made the active and inactive calls. The calls are words filed in the database; no cut-off is given here.

Series [1] can be described thus: Dissociation constant, pKa of the compound. Type of series: physicochemical.
Series [2] concerns HCT-116. The experiment in a line: Cytotoxicity against human HCT116 cells at 30 uM by Alamar blue assay. Type of series: functional, cell-based. (In general: Alamar Blue is a resazurin reagent that responds to reducing activity.)
Series [3] concerns HCT-116. The series is described as follows: Cytotoxicity against human HCT116 cells at 100 uM by Alamar blue assay. Type of series: functional.
Series [4] can be described thus: Intrinsic clearance in mouse liver S9 fraction. Type of series: ADME, subcellular. Particulars: s9.
Series [5] can be described thus: Chemical stability of the compound after 144 hrs. Type of series: physicochemical.
The target in series [6] is T1, hERG (KCNH2) (Homo sapiens, UniProt Q12809). The experiment in a line: in vitro. The following applies: HEK293 cells expressing hERG. In general terms: The hERG channel carries a current that helps repolarise heart muscle cells.
Description: Inhibition of human ERG expressed in HEK293 cells at 30 uM by patch clamp assay
Series [7] in a line: Thermal stability of the compound at 80 degC after 24 hrs. Type of series: physicochemical.
Series [8] is described as follows: Protein binding in human plasma after 6 hrs by equilibrium dialysis method. Type of series: ADME, cell-free. The following applies: read-out: PPB (converted). For orientation: In equilibrium dialysis only unbound substance equilibrates across the membrane.
The nature of series [9]: Chemical stability of the compound after 24 hrs. Type of series: physicochemical.
A short description of series [10]: Solubility of the compound in phosphate buffer at 15 mg at pH 5.5. Type of series: physicochemical.
Series [11] is described as follows: Solubility of the compound in lactate buffer at 15 mg at pH 4.2. Type of series: physicochemical.
The target in series [12] is T1, hERG (KCNH2). The experiment in a line: in vitro. Particulars: HEK293 cells expressing hERG. The source holds these as a separate data set.
Description: Inhibition of human ERG expressed in HEK293 cells at 3 uM by patch clamp assay
The nature of series [13]: Solubility of the compound in phosphate buffer at 15 mg at pH 6.5. Type of series: physicochemical.
Series [14] is described as follows: Chemical stability of the compound after 48 hrs. Type of series: physicochemical.
Series [15] can be described thus: Solubility of the compound in acetate buffer at 15 mg at pH 5.5. Type of series: physicochemical.
A further series is described as follows: physchem. Particulars: buffer, pH 7.4.
The target of another series is CYP3A4 (Homo sapiens, UniProt P08684). The experiment in a line: Inhibition of CYP3A4 at 10 uM. Type of series: ADME.
A further series deals with CYP2C19 (Homo sapiens, UniProt P33261). The series is described as follows: Inhibition of CYP2C19 at 10 uM. Type of series: ADME.
For the next series, the target named is CYP2C9 (Homo sapiens, UniProt P11712). The experiment in a line: Inhibition of CYP2C9 at 10 uM. Type of series: ADME.
A further series deals with Cytochrome P450 2C19 (Homo sapiens, UniProt P33261). The series is described as follows: Binding affinity to CYP2C19. Type of series: ADME.
For the next series, the target named is Cytochrome P450 2C9 (Homo sapiens, UniProt P11712). The series is described as follows: Binding affinity to CYP2C9. Type of series: ADME.
Sequence of Cytochrome P450 2C9 (P11712 whole entry): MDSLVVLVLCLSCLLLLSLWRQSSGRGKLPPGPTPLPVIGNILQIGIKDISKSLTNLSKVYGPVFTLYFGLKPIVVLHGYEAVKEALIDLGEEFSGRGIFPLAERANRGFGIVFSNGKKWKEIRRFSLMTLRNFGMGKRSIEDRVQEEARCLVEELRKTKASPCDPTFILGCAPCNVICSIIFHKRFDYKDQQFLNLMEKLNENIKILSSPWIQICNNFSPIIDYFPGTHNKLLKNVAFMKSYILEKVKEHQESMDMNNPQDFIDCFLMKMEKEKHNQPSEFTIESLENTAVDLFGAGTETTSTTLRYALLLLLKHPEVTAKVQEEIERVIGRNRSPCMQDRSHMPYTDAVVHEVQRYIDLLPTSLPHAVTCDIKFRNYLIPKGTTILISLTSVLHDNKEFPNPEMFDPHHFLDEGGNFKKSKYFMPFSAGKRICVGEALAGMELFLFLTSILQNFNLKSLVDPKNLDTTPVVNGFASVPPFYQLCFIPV

T1 sequence (Q12809 whole entry): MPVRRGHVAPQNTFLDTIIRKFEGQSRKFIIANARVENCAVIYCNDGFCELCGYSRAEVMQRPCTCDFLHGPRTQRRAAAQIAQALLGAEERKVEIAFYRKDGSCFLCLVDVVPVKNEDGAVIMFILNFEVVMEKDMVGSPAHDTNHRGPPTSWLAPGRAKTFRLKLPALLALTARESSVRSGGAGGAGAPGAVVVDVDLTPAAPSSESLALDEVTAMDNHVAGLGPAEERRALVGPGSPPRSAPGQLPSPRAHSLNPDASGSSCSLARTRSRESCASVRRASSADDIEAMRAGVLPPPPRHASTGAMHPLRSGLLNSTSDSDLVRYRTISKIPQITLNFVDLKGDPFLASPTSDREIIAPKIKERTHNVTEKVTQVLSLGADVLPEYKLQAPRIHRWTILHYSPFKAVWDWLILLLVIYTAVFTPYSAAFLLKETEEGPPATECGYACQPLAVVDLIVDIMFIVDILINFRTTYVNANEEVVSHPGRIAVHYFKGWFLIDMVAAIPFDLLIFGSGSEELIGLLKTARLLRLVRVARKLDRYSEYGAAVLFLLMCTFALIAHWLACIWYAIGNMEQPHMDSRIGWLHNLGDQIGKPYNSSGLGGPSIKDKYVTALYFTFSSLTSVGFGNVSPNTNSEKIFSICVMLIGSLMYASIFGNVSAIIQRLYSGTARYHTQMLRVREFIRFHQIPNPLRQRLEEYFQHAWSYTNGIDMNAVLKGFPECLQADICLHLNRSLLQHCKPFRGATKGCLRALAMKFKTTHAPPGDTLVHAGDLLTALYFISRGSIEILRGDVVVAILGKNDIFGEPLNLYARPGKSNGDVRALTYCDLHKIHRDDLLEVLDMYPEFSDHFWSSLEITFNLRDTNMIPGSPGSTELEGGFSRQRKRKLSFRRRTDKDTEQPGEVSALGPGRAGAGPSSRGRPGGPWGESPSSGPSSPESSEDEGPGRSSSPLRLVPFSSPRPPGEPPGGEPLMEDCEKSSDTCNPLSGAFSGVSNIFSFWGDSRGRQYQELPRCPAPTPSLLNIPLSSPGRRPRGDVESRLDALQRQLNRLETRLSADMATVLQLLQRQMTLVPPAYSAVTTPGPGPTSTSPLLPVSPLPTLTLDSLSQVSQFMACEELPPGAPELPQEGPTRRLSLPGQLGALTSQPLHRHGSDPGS
Sequence of CYP3A4 (P08684 whole entry): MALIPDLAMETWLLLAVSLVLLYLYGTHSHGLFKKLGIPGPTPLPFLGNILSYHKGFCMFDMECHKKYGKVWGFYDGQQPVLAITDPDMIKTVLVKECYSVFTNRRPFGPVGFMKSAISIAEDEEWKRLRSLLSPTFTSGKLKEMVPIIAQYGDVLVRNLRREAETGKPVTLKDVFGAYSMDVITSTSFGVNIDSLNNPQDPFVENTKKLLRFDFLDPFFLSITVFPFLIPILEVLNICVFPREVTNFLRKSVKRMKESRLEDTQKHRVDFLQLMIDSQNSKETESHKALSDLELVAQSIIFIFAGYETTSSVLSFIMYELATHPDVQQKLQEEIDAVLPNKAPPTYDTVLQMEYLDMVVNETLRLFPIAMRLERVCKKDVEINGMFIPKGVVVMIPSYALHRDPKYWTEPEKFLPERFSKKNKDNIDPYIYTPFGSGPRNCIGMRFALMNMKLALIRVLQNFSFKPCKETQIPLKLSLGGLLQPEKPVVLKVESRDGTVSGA
Sequence of CYP2C9 (P11712 whole entry): as the sequence (P11712 whole entry) above
Sequence of Cytochrome P450 2C19 (P33261 whole entry): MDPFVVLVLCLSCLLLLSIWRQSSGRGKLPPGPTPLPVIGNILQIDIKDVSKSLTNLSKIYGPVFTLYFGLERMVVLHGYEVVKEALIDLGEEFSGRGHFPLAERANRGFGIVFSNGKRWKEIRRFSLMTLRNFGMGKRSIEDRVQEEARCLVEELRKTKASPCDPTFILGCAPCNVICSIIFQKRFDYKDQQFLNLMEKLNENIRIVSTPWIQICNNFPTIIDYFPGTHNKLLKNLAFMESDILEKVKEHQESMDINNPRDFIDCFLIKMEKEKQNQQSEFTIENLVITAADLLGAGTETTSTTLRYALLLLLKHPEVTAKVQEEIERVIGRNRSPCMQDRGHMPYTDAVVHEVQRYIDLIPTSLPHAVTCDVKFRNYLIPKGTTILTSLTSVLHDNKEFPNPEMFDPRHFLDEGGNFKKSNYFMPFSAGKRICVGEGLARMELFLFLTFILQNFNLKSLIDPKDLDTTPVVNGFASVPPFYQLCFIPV
Sequence of CYP2C19 (P33261 whole entry): as above

As to `CC(C)c1cc(C(=O)N2Cc3ccc(N4CCOCC4)cc3C2)c(O)cc1O`, in series [1], the pKa was found to be 4.3.
With `CC(C)c1cc(C(=O)N2Cc3ccccc3C2)c(O)c(F)c1O`, the outcome in the series on HCT-116 [2] was inactive. This compound also registered an Activity with HCT-116 [3] of 60%. For the same compound, in series [4], the CL was found to be 5.8 mL/day/kg.
In the case of `CC(C)c1cc(C(=O)N2Cc3ccc(C4(O)CCN(C)CC4)cc3C2)c(O)cc1O`, the Stability entry was “Stable” in series [5], “Unstable” in series [7], “Stable” in series [9] and “Stable” in series [14]. This compound registered an inhibition at 30 µM against hERG (KCNH2) [6] of 34%. In [8], the fraction unbound at 6 h is 0.36. The compound also had a pKa in series [1] of 9.4. The solubility in [10] is > 30 mg/mL; in [11], > 30 mg/mL; in series [13] it was 15 mg/mL (≈ 36.5 mM); in series [15], > 30 mg/mL. The same compound registered an inhibition at 3 µM at hERG (KCNH2) [12] of 15%. In the series “physchem”, this compound gave a logD of 1.7.
The compound `CC(C)c1cc(C(=O)N2Cc3cccc(OCCN(C)C)c3C2)c(O)cc1O` gave an inhibition at 30 µM on hERG (KCNH2) [6] of 93%. On CYP3A4, the inhibition at 10 µM was < 50%. For the same compound, 3 µM produced 43% inhibition at hERG (KCNH2) [12].
For `CC(C)c1cc(C(=O)N2Cc3ccc(NC4CCNCC4)cc3C2)c(O)cc1O`, at 30 µM the inhibition on hERG (KCNH2) [6] was 20%. The compound also showed a pKa in series [1] of 10.2. The same compound showed an inhibition at 3 µM on hERG (KCNH2) [12] of 10%. The logD in the series “physchem” was found to be 0.7.
The compound `CC(C)c1cc(C(=O)N2Cc3ccc(OCCNC4CCCC4)cc3C2)c(O)cc1O` yielded an inhibition at 30 µM against hERG (KCNH2) [6] of 97%. At hERG (KCNH2) [12], the inhibition at 3 µM came out at 60%.
As to `CC(C)c1cc(C(=O)N2Cc3ccc(CN(C)C)cc3C2)c(O)cc1O`, at hERG (KCNH2) [6], 30 µM produced 57% inhibition. The fraction unbound at 6 h in series [8] is 0.36. This compound gave a pKa in series [1] of 9.2. The same compound yielded an inhibition at 3 µM against hERG (KCNH2) [12] of 5%. Besides, the inhibition at 10 µM against CYP2C19 and on CYP2C9 was 50% each time. The compound further gave a logD in the series “physchem” of 2.1.
On to `CC(C)c1cc(C(=O)N2Cc3ccc(OCCCN)cc3C2)c(O)cc1O`, for which the inhibition at 30 µM at hERG (KCNH2) [6] turned out to be 42%. Besides, the pKa in [1] was determined as 10.2. For the same compound, at hERG (KCNH2) [12], 3 µM produced 8% inhibition. Also, the result at Cytochrome P450 2C19 and on Cytochrome P450 2C9 was Active. The logD in “physchem” was determined as 0.96.
Turning to `CC(C)c1cc(C(=O)N2Cc3ccc(N4CCNCC4)cc3C2)c(O)cc1O`, the inhibition at 30 µM at hERG (KCNH2) [6] worked out at 70%. Further, in [8], the fraction unbound at 6 h is 0.36. The pKa in [1] came out at 8.4. In addition, at hERG (KCNH2) [12], the inhibition at 3 µM is 13%. Moreover, the logD in the series “physchem” was found to be 1.6.
On to `CC(C)c1c(O)cc(O)c(C(=O)N2Cc3ccccc3C2)c1F`, for which the Activity entry with HCT-116 [2] was “Not toxic”; with HCT-116 [3], 60%.
